Measured values from patent publication US12268726B2, “Treatment of rhinosinusitis with P-glycoprotein inhibitors” (Massachusetts Eye and Ear Infirmary, priority 2012, dated 2025).
Like-named read-outs stand apart in the source and are kept apart here.

Tests used:
[1] = tested on: GM-CSF secretion; assay: GM-CSF secretion in LPS stimulated CRSwNP primary sinonasal epithelial cells with dexamethasone; format: cell-based, human; conditions: LPS 0.0125 mg/ml
Description: The increase in intracellular corticosteroid concentration potentiates its anti-inflammatory effect. Primary sinonasal epithelial cell culture was derived from patients with chronic sinusitis with nasal polyps (CRSwNP) and stimulated with LPS, a component of gram negative bacterial cell walls.

[2] = tested on: P-gp; assay: Q-FIHC for membranous P-gp expression in PNECCs; format: cell-based, human; conditions: LPS 0.05 mg/mL, 23 h
Protocol: Exclusion criteria included the following: diagnosis of chronic sinusitis, use of oral steroids or immunotherapy within the preceding 4 weeks, aspirin sensitivity, ciliary dysfunction, autoimmune disease, cystic fibrosis, or any known immunodeficiency. All tissues were derived from schneiderian mucosa within the middle meatus.
Mucosal biopsies were washed and digested in Pronase for 90 minutes at 37° C. Cell suspensions were separated from particulate matter by centrifugation and resuspended in basal epithelial growth medium (BEGM) (Lonza, Basel, Switzerland). Cells were plated for 2 hours on standard tissue culture plates to remove contaminating fibroblasts. Cells were then expanded for 3-5 days on collagen coated 75 cm 2 dishes (Corning Life Sciences, Corning, NY). Once confluent, the PNECCs were trypsinized and re-seeded evenly on human collagen type IV-coated 6-well tissue culture plates. Cultures were grown to 80% confluence in BEGM prior to testing. PNECC cells intended for immunohistochemistry were grown on tissue culture treated coverslips placed within the wells. […]
Q-FIHC for membranous P-gp expression was performed using previously described techniques (Kirkeby et al., 2005). […] The mean corrected luminosity was considered the staining intensity (calculated using Image J v1.45s) divided by the total number of pixels subtended by the cells.

[3] = tested on: GM-CSF, IL-6, IL-8, IL-25 secretion in HSNECCs; assay: P-gp mediated cytokine secretion testing (ELISA) in HSNECCs; format: cell-based, human
Protocol: (§1) For P-gp mediated cytokine secretion testing, HSNECC cells were exposed to 0.05 mg/mL LPS stimulation for 23 hours with or without concomitant P-gp inhibition using PSC 833 (8 μM), which was applied one hour prior to LPS stimulation. Control wells were considered those exposed to culture medium alone (BEGM). A 0.4% trypan blue (Sigma, St. Louis, MO) cell survival assay was used to ensure the stimulant and inhibitor exposures were not cytotoxic. In all wells less than 20% of cells were stained blue indicating greater than 80% survival. Following the LPS and PSC 833 exposures, the media was removed from each well. Cytokine concentrations for GM-CSF, IL-6, IL-8, and IL-25 in each well were determined by ELISA according to the manufacturer guidelines (GM-CSF, IL-6, IL-8 eBioscience, San Diego, CA; IL-25 Assay Biotechnology, San Francisco, CA). Cytokine concentrations were normalized to total media protein concentrations using a Pierce BCA Protein Assay Kit.

[4] = tested on: P-gp; format: cell-based, human; conditions: PNECCs, mean
Protocol: Following removal of media from each well, the cytoplasmic and membranous protein fractions were isolated using a two-step extraction assay (DualXtract, Bulldog Bio, Inc., Portsmouth, NH). Membrane bound P-gp was quantified by subjecting the membranous fraction to ELISA (USCN Life Sciences Inc., Wuhan, P.R. China) and normalized to the cytoplasmic protein concentration.
In some wells, a specific P-gp inhibitor (PSC 833 8 micM, Tocris Bioscience, Bristol, UK) was applied to the cells 1 hour prior to LPS stimulation. Following the LPS and PSC 833 treatment, the media was removed from each well, and ELISA was performed to quantify membrane bound P-gp.

[5] = tested on: IL-6, IL-8, GM-CSF, TSLP secretion in PNECCs; assay: LPS stimulated cytokine secretion (ELISA) in PNECCs; format: cell-based, human; conditions: mean; for normalized IL-6 secretion: normalized to total media protein
Protocol: (§2) Cells were exposed to 23 hours of stimulation with LPS (0.05 mg/mL) with or without concomitant P-gp inhibition by PSC 833(8 micM), which was applied to cells 1 hour prior to LPS treatment. Control wells were considered those exposed to culture medium alone (BEGM). A 0.4% trypan blue (Sigma, St. Louis, MO) cell survival assay was used to ensure the stimulant and inhibitor exposures were not cytotoxic. In all wells less than 20% of cells were stained blue indicating greater than 80% survival. Following the LPS and PSC 833 exposures, the media was removed from each well. Cytokine concentrations for IL-6, IL-8, GM-CSF, and TSLP in each well were determined by ELISA according to the manufacturer guidelines (eBioscience, San Diego, CA). Cytokine concentrations were normalized to total media protein concentrations using a Pierce BCA Protein Assay Kit.

[6] = tested on: PNECCs; assay: 0.4% trypan blue cell survival assay in PNECCs; format: cell-based, human
Protocol: PNECC cells were exposed to 23 hours of stimulation with lipopolysaccharide (LPS, 0.05 mg/mL), which is a toll-like receptor 4 agonist and capable of eliciting a strong immune responses. Control cells were considered those exposed to culture medium alone (BEGM). A 0.4% trypan blue (Sigma, St. Louis, MO) cell survival assay was used to ensure the stimulant exposures were not cytotoxic. In all wells, less than 20% of cells were stained blue indicating greater than 80% survival of the cells. Following the LPS exposures, the media was removed from each well.
as §2, with “Cytokine concentrations were normalized to total media protein concentrations using a Pierce BCA Protein Assay Kit.” left out

[7] = tested on: P-gp; assay: ELISA of membrane-bound P-glycoprotein in CRSwNP HSNECCs; format: cell-based, human; conditions: LPS 0.05 mg/mL, ng/mL normalized to total cytoplasmic protein (mcg/mL) per FIG. 17B
Protocol: Human sinonasal nasal epithelial cell cultures (HSNECCs) from five patients were grown from nasal polyps as previously described. Briefly, polyp samples were washed and digested in Pronase for 90 minutes at 37° C. Cell suspensions were separated from particulate matter by centrifugation and resuspended in BEGM. Cells were plated for 2 hours on standard tissue culture plates to remove contaminating fibroblasts. Cells were then expanded for 3-5 days on collagen coated 75 cm^2 dishes (Corning Life Sciences, Corning, NY). Once confluent, the HSNECCs were trypsinized and re-seeded evenly on human collagen type IV-coated 6-well and 96-well tissue culture plates. 6-well cultures were grown to 80% confluence in BEGM prior to cytokine and protein analysis. 96-well plates intended for the dose dependent inhibition assay were grown to 100% confluence. Cells intended for immunohistochemistry were grown on tissue culture treated coverslips.
Membrane-bound P-glycoprotein in HSNECCs was quantified as follows. After removal of media from each well, the cytoplasmic and membranous protein fractions were isolated using a two-step extraction assay (DualXtract, Bulldog Bio, Inc., Portsmouth, NH).

[8] = molecular target: T1, P-gp (Homo sapiens, UniProt P08183); conditions: Varma et al., 2003; cited from earlier work
T1 sequence (P08183 whole entry): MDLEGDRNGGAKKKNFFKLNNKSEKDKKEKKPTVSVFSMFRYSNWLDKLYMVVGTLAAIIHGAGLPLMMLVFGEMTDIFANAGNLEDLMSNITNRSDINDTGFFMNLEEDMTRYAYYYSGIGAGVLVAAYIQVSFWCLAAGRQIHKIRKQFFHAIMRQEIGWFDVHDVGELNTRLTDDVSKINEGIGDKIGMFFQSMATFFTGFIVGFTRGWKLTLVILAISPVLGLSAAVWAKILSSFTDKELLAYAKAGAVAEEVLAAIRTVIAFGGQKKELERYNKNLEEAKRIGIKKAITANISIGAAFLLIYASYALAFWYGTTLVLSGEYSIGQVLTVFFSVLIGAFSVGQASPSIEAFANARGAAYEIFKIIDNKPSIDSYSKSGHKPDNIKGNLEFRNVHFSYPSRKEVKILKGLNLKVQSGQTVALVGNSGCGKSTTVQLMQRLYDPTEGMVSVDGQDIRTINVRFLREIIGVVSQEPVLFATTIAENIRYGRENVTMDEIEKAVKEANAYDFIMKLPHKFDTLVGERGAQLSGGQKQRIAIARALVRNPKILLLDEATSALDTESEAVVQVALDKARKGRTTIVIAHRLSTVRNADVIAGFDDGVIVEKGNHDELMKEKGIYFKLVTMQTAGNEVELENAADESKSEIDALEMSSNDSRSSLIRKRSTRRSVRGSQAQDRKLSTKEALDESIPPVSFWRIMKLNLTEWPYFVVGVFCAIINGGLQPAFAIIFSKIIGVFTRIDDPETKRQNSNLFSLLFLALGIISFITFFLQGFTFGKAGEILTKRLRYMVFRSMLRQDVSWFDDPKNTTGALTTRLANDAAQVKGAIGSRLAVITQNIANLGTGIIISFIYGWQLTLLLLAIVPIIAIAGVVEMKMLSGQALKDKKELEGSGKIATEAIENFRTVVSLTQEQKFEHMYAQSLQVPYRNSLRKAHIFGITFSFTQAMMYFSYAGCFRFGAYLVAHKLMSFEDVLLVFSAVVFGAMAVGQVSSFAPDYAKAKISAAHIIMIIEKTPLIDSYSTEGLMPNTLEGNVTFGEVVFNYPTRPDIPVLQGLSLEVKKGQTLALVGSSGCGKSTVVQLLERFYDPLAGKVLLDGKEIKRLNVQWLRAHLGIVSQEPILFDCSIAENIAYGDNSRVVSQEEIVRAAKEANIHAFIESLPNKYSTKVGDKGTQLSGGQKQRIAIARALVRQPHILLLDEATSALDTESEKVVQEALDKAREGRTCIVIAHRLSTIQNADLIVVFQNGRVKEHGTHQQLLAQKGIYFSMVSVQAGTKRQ

[9] = molecular target: T1, P-gp; assay: Steroid release from nasal polyp explants after dexamethasone incubation; format: cell-based; conditions: polyp explants after 30-minute dexamethasone 0.05 mg/mL; PSC 833 (804) vs media alone
Protocol: The ability of nasal polyp explants to retain steroid after a 30-minute incubation in dexamethasone (0.05 mg/mL, n=6) was examined. Following incubation, polyp explants were placed either in media alone or in media containing the P-gp inhibitor PSC 833 (804) and the amount of steroid released by the explants into the surrounding media was measured.

[10] = tested on: HSNECC cells; format: cell-based; conditions: human, 24 h, 8 µM
Protocol: as §1

[11] = molecular target: T1, P-gp; assay: Intracellular dexamethasone retention in primary sinonasal epithelial cells (CRSwNP); format: cell-based; conditions: LPS stimulated, three patients
Description: These cultured primary sinonasal epithelial cells were stimulated with lipopolysaccharide (LPS) in the presence or absence of the P-gp inhibitor PSC 833.

[12] = LPS 0.05 mg/mL + PSC 833 8 μM, no inhibition
[13] = LPS 0.05 mg/mL + PSC 833 8 micM

Compound: lipopolysaccharide [LPS]
- GM-CSF secretion versus unstimulated control cells [1]: increased GM-CSF secretion
- mean corrected luminosity of membranous P-gp (Q-FIHC) [2]: 9.64
- secretion of GM-CSF normalized to total media protein ([3]; LPS 0.05 mg/mL alone, 23 hours): 45.21+/−41.39 pcg/mL normalized to total med
- secretion of IL-6 normalized to total media protein ([3]; LPS 0.05 mg/mL alone, 23 hours): 63.16+/−36.37 pcg/mL normalized to total med
- secretion of IL-8 normalized to total media protein ([3]; LPS 0.05 mg/mL alone, 23 hours): 1041.17+/−550.52 pcg/mL normalized to total med
- secretion of IL-25 normalized to total media protein ([3]; LPS 0.05 mg/mL alone, 23 hours): 0.075+/−0.039 pcg/mL normalized to total med
- normalized membranous P-gp (ELISA, normalized to cytoplasmic protein) ([4]; LPS 0.05 mg/mL alone, 23 h): 19.63
- normalized GM-CSF secretion ([5]; LPS 0.05 mg/mL alone, 23 h): 39.92
- normalized IL-8 secretion ([5]; LPS 0.05 mg/mL alone, 23 h): 912.91
- normalized TSLP secretion ([5]; LPS 0.05 mg/mL alone, 23 h): 6.65
- normalized IL-6 secretion ([5]; LPS 0.05 mg/mL alone, 23 h): 79.67
- cell survival (trypan blue) ([6]; PNECCs, LPS 0.05 mg/mL, 23 hours): greater than 80%
- mean normalized concentration of membranous P-gp (ELISA) [7]: 22.23+/−10.22

Compound: CCOC/C=C/c1ccc(-c2nc(-c3ccc(NC(C)C)cc3)c(-c3ccc(NC(C)C)cc3)[nH]2)cc1 [OC144093, 4-[2-[4-[(E)-3-ethoxyprop-1-enyl]phenyl]-4-[4-(propan-2-ylamino)phenyl]-1H-imidazol-5-yl]-N-propan-2-ylaniline]
- potency relative to the first and second-generation P-gp inhibitors [8]: about 10 fold

Compound: COc1cc2c(cc1OC)CN(CCc1ccc(NC(=O)c3cc(OC)c(OC)cc3NC(=O)c3cnc4ccccc4c3)cc1)CC2 [XR9576, N-[2-[[4-[2-(6,7-Dimethoxy-3,4-dihydro-1H-isoquinolin-2-yl)ethyl]phenyl]carbamoyl]-4,5-dimethoxyphenyl]quinoline-3-carboxamide]
- potency relative to the first and second-generation P-gp inhibitors [8]: about 10 fold

Compound: C/C=C/C[C@@H](C)C(=O)[C@H]1C(=O)N[C@@H](C(C)C)C(=O)N(C)CC(=O)N(C)[C@@H](CC(C)C)C(=O)N[C@@H](C(C)C)C(=O)N(C)[C@@H](CC(C)C)C(=O)N[C@@H](C)C(=O)N[C@H](C)C(=O)N(C)[C@@H](CC(C)C)C(=O)N(C)[C@@H](CC(C)C)C(=O)N(C)[C@@H](C(C)C)C(=O)N1C [PSC 833, 6-[(2S,4R,6E)-4-methyl-2-(methylamino)-3-oxo-6-octenoic acid]-7-L-valine-cyclosporin A]
- GM-CSF secretion compared to dexamethasone treatment alone ([1]; PSC833 (804) + dexamethasone 0.1 mg/mL): reduced GM-CSF secretion
- steroid release by explants into surrounding media [9]: statistically significant decrease
- secretion of GM-CSF normalized to total media protein ([3]; LPS 0.05 mg/mL + PSC 833 8 μM): 8.47+/−3.28 pcg/mL normalized to total med
- secretion of IL-6 normalized to total media protein ([3]; LPS 0.05 mg/mL + PSC 833 8 μM): 39.94+/−31.07 pcg/mL normalized to total med
- secretion of IL-8 normalized to total media protein [3, 12]: 1608.41+/−471.94 pcg/mL normalized to total med
- secretion of IL-25 normalized to total media protein [3, 12]: 0.073+/−0.038 pcg/mL normalized to total med
- normalized membranous P-gp (ELISA, normalized to cytoplasmic protein) ([4]; LPS + PSC 833 8 micM applied 1 hour prior to LPS, not significant vs LPS alone (p=0.115)): 70.40
- normalized GM-CSF secretion [5, 13]: 7.64
- normalized TSLP secretion [5, 13]: 5.13
- normalized IL-8 secretion ([5]; LPS 0.05 mg/mL + PSC 833 8 micM, reduction not significant (p=0.313)): 801.09
- normalized IL-6 secretion [5, 13]: 37.60
- cell survival (trypan blue) ([6]; human, 24 h, 8 µM): greater than 80%
- cell survival (trypan blue) [10]: greater than 80%
- intracellular dexamethasone retention relative to dexamethasone alone [11]: increased intracellular dexamethasone retention
